Columns and labels:
[1] = refractive index (Na D-line) (dimensionless); details: 318.15 K; 101.33 kPa; Liquid; Standard Abbe refractometry
[2] = Liquid
[3] = excess molar enthalpy (molar enthalpy of mixing); xn = mol fraction of the nth substance listed; details: 101.32 kPa, Liquid, Calvet calorimetry
[4] = xn = mol fraction of the nth substance listed; details: 101.32 kPa, Liquid

COC(C)=O [methyl ethanoate]
Details | refractive index
[1] | 1.3486

[2]
Details | vapor or sublimation pressure [kPa]
305.21 K | 39.85
305.85 K | 41.28
306.84 K | 42.46
307.84 K | 44.04
308.13 K | 45.37
308.75 K | 46.97
309.72 K | 48.14
310.17 K | 49.41
311.19 K | 50.42
311.59 K | 51.81
312.76 K | 53.53
313.38 K | 54.58
313.74 K | 55.9
314.18 K | 57.49
314.88 K | 58.59
315.56 K | 60.05
316.06 K | 61.43
316.57 K | 62.5
317.05 K | 63.9
318.34 K | 66.51
318.69 K | 67.81
319.37 K | 69.23
319.93 K | 70.45
320.11 K | 71.01
320.34 K | 71.9
320.65 K | 73.35
321.34 K | 74.58
321.46 K | 75.27
321.72 K | 76.13
322.07 K | 77.22
322.36 K | 77.87
322.62 K | 78.83
323.07 K | 80.15
323.49 K | 81.23
324.29 K | 82.59
324.58 K | 83.84
324.95 K | 85.23
325.33 K | 86.76
325.71 K | 87.86
326.25 K | 89.23
326.63 K | 90.98
327.08 K | 92.06
327.54 K | 93.46
328 K | 94.82
328.17 K | 96.1
328.96 K | 97.67
329.38 K | 99.14
329.55 K | 100.18
329.86 K | 101.32
330.09 K | 102.6
330.43 K | 104.14
330.97 K | 105.19
331.43 K | 106.75
331.76 K | 107.92
332.06 K | 109.42
332.52 K | 110.71
332.77 K | 112.16
333.1 K | 113.39
333.6 K | 114.47
333.94 K | 115.87
334.06 K | 117.43
334.27 K | 118.52
334.73 K | 120.12
335.06 K | 121.46
335.23 K | 122.57
335.73 K | 123.95
336.07 K | 125.35
336.48 K | 126.88
336.86 K | 127.85
337.19 K | 129.37
337.53 K | 130.87
337.78 K | 131.93
337.9 K | 133.48
338.15 K | 134.72
338.66 K | 136.16
338.82 K | 137.37
339.07 K | 138.56
339.41 K | 140.07
339.66 K | 141.45
339.95 K | 142.53
340.33 K | 144.04
340.49 K | 145.51
340.95 K | 146.43
341.08 K | 147.88
341.45 K | 149.13
341.79 K | 150.58
342 K | 151.93
342.37 K | 153.34
342.46 K | 154.61
342.85 K | 155.92
343.21 K | 157.52
343.36 K | 158.57
343.46 K | 160.01
343.67 K | 161.1
344.09 K | 162.7
344.46 K | 164.2
344.67 K | 165.28
344.88 K | 166.78
345.05 K | 168.02
345.26 K | 169.24
345.47 K | 170.37
345.84 K | 171.92
345.96 K | 173.2

Details | mass density [kg/m3]
[2], 318.15 K, 101.33 kPa | 900.19

COC=O [methyl methanoate] + CC(C)(C)O
299.15 K
Details | excess molar enthalpy, [3] [kJ/mol] | excess molar volume, [4] [m3/mol]
x1 = 0.0627 | – | 2.95e-07
x1 = 0.0899 | 0.659 | –
x1 = 0.1002 | – | 4.51e-07
x1 = 0.1302 | – | 5.67e-07
x1 = 0.1667 | – | 6.88e-07
x1 = 0.202 | 1.4 | –
x1 = 0.2419 | – | 8.67e-07
x1 = 0.2873 | 1.89 | –
x1 = 0.319 | – | 9.88e-07
x1 = 0.3526 | – | 1.025e-06
x1 = 0.3657 | 2.21 | –
x1 = 0.4033 | – | 1.061e-06
x1 = 0.4323 | 2.38 | –
x1 = 0.4976 | – | 1.068e-06
x1 = 0.5033 | 2.49 | –
x1 = 0.5076 | – | 1.067e-06
x1 = 0.5567 | 2.49 | –
x1 = 0.5726 | – | 1.036e-06
x1 = 0.6017 | 2.43 | –
x1 = 0.6163 | – | 9.94e-07
x1 = 0.6287 | 2.38 | –
x1 = 0.6512 | – | 9.55e-07
x1 = 0.6747 | 2.25 | –
x1 = 0.7222 | 2.06 | 8.68e-07
x1 = 0.7382 | – | 8.34e-07
x1 = 0.7721 | 1.81 | –
x1 = 0.7939 | – | 7.46e-07
x1 = 0.8111 | – | 7.04e-07
x1 = 0.8206 | 1.52 | –
x1 = 0.8697 | 1.18 | –
x1 = 0.8902 | – | 5.01e-07
x1 = 0.9187 | 0.778 | –
x1 = 0.9574 | – | 2.43e-07
x1 = 0.9598 | 0.417 | –

CCC(=O)OC [methyl propanoate] + CC(C)(C)O
Details | excess molar enthalpy [kJ/mol] | excess molar volume [m3/mol]
[3], 299.15 K, x1 = 0.0603 | 0.419 | –
[3], 299.15 K, x1 = 0.1414 | 0.89 | –
[3], 299.15 K, x1 = 0.2285 | 1.33 | –
[3], 299.15 K, x1 = 0.3164 | 1.65 | –
[3], 299.15 K, x1 = 0.3971 | 1.85 | –
[3], 299.15 K, x1 = 0.4573 | 1.93 | –
[3], 299.15 K, x1 = 0.4705 | 1.94 | –
[3], 299.15 K, x1 = 0.5159 | 1.95 | –
[3], 299.15 K, x1 = 0.5343 | 1.94 | –
[3], 299.15 K, x1 = 0.5899 | 1.9 | –
[3], 299.15 K, x1 = 0.6328 | 1.82 | –
[3], 299.15 K, x1 = 0.6447 | 1.79 | –
[3], 299.15 K, x1 = 0.7116 | 1.62 | –
[3], 299.15 K, x1 = 0.7778 | 1.37 | –
[3], 299.15 K, x1 = 0.8496 | 1.02 | –
[3], 299.15 K, x1 = 0.9351 | 0.481 | –
[3], 318.15 K, x1 = 0.0486 | 0.326 | –
[3], 318.15 K, x1 = 0.1007 | 0.639 | –
[3], 318.15 K, x1 = 0.1707 | 1 | –
[3], 318.15 K, x1 = 0.2374 | 1.3 | –
[3], 318.15 K, x1 = 0.3021 | 1.52 | –
[3], 318.15 K, x1 = 0.3578 | 1.67 | –
[3], 318.15 K, x1 = 0.4076 | 1.78 | –
[3], 318.15 K, x1 = 0.4404 | 1.84 | –
[3], 318.15 K, x1 = 0.4827 | 1.86 | –
[3], 318.15 K, x1 = 0.5312 | 1.88 | –
[3], 318.15 K, x1 = 0.582 | 1.85 | –
[3], 318.15 K, x1 = 0.6358 | 1.77 | –
[3], 318.15 K, x1 = 0.6986 | 1.65 | –
[3], 318.15 K, x1 = 0.7666 | 1.41 | –
[3], 318.15 K, x1 = 0.8289 | 1.14 | –
[3], 318.15 K, x1 = 0.8931 | 0.791 | –
[3], 318.15 K, x1 = 0.9582 | 0.391 | –
[4], 303.15 K, x1 = 0.0517 | – | 1.52e-07
[4], 303.15 K, x1 = 0.1081 | – | 2.93e-07
[4], 303.15 K, x1 = 0.1525 | – | 3.88e-07
[4], 303.15 K, x1 = 0.202 | – | 4.71e-07
[4], 303.15 K, x1 = 0.2516 | – | 5.43e-07
[4], 303.15 K, x1 = 0.3129 | – | 6.1e-07
[4], 303.15 K, x1 = 0.3638 | – | 6.48e-07
[4], 303.15 K, x1 = 0.406 | – | 6.67e-07
[4], 303.15 K, x1 = 0.4603 | – | 6.78e-07
[4], 303.15 K, x1 = 0.5167 | – | 6.79e-07
[4], 303.15 K, x1 = 0.5558 | – | 6.68e-07
[4], 303.15 K, x1 = 0.6086 | – | 6.41e-07
[4], 303.15 K, x1 = 0.6546 | – | 6.07e-07
[4], 303.15 K, x1 = 0.7197 | – | 5.43e-07
[4], 303.15 K, x1 = 0.752 | – | 4.91e-07
[4], 303.15 K, x1 = 0.8122 | – | 4.15e-07
[4], 303.15 K, x1 = 0.8545 | – | 3.48e-07
[4], 303.15 K, x1 = 0.9065 | – | 2.53e-07
[4], 303.15 K, x1 = 0.9394 | – | 1.73e-07
[4], 318.15 K, x1 = 0.075 | – | 1.94e-07
[4], 318.15 K, x1 = 0.1476 | – | 3.15e-07
[4], 318.15 K, x1 = 0.1952 | – | 4.16e-07
[4], 318.15 K, x1 = 0.2636 | – | 4.98e-07
[4], 318.15 K, x1 = 0.3159 | – | 5.59e-07
[4], 318.15 K, x1 = 0.3628 | – | 6.06e-07
[4], 318.15 K, x1 = 0.4165 | – | 6.39e-07
[4], 318.15 K, x1 = 0.4931 | – | 6.48e-07
[4], 318.15 K, x1 = 0.5472 | – | 6.41e-07
[4], 318.15 K, x1 = 0.6296 | – | 6.09e-07
[4], 318.15 K, x1 = 0.6429 | – | 5.87e-07
[4], 318.15 K, x1 = 0.7013 | – | 5.41e-07
[4], 318.15 K, x1 = 0.795 | – | 4.27e-07
[4], 318.15 K, x1 = 0.8267 | – | 3.68e-07
[4], 318.15 K, x1 = 0.8822 | – | 2.81e-07
[4], 318.15 K, x1 = 0.9493 | – | 1.39e-07

Source: the NIST ThermoML archive (doi:10.1021/je034290l)
